According to patent US20180169242A1, “PHARMACEUTICAL COMBINATION FOR CANCER TREATMENT AND THE THERAPEUTIC USE THEREOF” (Shiner Pharm Corp., priority 2016, published 2018):

Test system: Lewis lung carcinoma cells
Assay: Local tumor growth (tumor volume) in Lewis lung carcinoma animal model
Type: in vivo, C57BL/6 mice
Conditions: metformin 200 mg/kg/day, fluvastatin 80 mg/kg/day
Experimental: Lewis lung carcinoma (LLC) model was established.
The cancer inhibiting effect of metformin and statin was examined. After the mice were sacrificed, tumor volume on the right thigh of the mice was measured to deteiiiiine local tumor growth.

CN(C)C(=N)N=C(N)N [metformin]
therapeutic effect on tumor volume compared with the sham group (no irradiation, day 7 to day 11, tumor volume on right thigh at day 21): did not exhibit any therapeutic effect
local tumor growth / tumor volume when combined with radiotherapy (with 40 Gy irradiation in two 20 Gy fractions (day 8, day 10), compared with RT alone, RT+M and RT+S, day 21): neither combining radiotherapy with metformin alone or with statin alone could suppress local tumor growth
